Where a name gives a salt, the structure may show the parent alone. Read-outs that look alike come from different tables or passages of the source. Values belong to the compound of their own block, whether it stands above or below them.
Experiments:
CCK-1 receptor = biological target: T1, CCK-1 receptor (Homo sapiens, UniProt P32238); assay: CCK-1 receptor radioligand binding assay ([125I]-BH-CCK-8S competition, membranes of stably transfected CHO-K1 cells)
T1 construct: expressed in transfected cells; membranes
T1 sequence (P32238 1-428): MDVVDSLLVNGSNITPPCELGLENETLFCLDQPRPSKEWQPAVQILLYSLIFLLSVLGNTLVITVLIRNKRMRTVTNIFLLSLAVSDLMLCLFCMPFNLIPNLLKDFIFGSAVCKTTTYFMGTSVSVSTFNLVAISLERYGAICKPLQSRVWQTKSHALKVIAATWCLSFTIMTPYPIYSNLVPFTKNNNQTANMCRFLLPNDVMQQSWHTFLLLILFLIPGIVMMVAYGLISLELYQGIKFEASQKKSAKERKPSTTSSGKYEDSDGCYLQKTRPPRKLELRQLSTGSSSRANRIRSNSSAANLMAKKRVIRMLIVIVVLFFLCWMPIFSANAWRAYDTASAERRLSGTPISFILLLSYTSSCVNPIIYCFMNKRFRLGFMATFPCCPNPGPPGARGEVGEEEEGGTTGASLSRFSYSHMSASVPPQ
Description: CHO-K1 cells that had undergone stable transfection with the CCK-1 receptor were grown in DMEM supplemented with L-glutamine (2 mM), penicillin (50 units/mL) and streptomycin (50 μg/mL). Cells were cultured under continuous G418 selection (2 mM) and were harvested using a rubber cell scraper. CHO-K1 cells were sub-cultured a maximum of ten times before being reseeded from the original stocks.
Membranes were prepared from the stably transfected CHO-K1 cells. Frozen cell pellets (−40° C.) were thawed in 14 mL of buffer A (10 mM HEPES, 130 mM NaCl, 4.7 mM KCl, 5 mM MgCl, 1 mM EGTA and 15.4 mg/100 mL bacitracin at pH 7.2), adapted from Harper et al. (Br. J. Pharmacol. (1996) 118, pp 1717-1726). The thawed pellets were homogenized using a Polytron PT-10 (7×1 s). […]
All assays were conducted in 96-well plates (GF/B millipore filter plates) using buffer A, with 0.3 μM PD-134,308, for the dilutions. […] Total binding of [125I]—BH—CCK-8S was determined in the presence of 15 μL of buffer A. Non-specific binding of [125I]—BH—CCK-8S was determined in the presence of 15 μL of 100 μM 2-naphthalenesulphonyl L-aspartyl-(2-phenethyl)amide (2-NAP: see R. A. Hull et al., Br. J. Pharmacol. (1993) 108, pp 734-740), a CCK-1 receptor selective antagonist that is structurally unrelated to the radioligand [125I]—BH—CCK-8S. […] Bound radioactivity was determined using a gamma counter (count time=1 min). […]

Compound: COc1ccc(-n2nc(C[C@H](C([O])=O)c3cccc(C)c3)cc2-c2ccc(Cl)c(Cl)c2)cc1 [Example 1, (S)-Sodium; 3-[5-(3,4-dichloro-phenyl)-1-(4-methoxy-phenyl)-1H-pyrazol-3-yl]-2-m-tolyl-propionate]
Ki (CCK-1 receptor): 10 nM

Compound: COc1ccc(-n2nc(C[C@H](C([O])=O)c3cccc(C)c3)cc2-c2ccc(Cl)c(Cl)c2)cc1 (as salt: sodium) [Example 1, (S)-Sodium; 3-[5-(3,4-dichloro-phenyl)-1-(4-methoxy-phenyl)-1H-pyrazol-3-yl]-2-m-tolyl-propionate]
melting point: 295.5 to 297.5 °C

Ki (CCK-1 receptor; [125I]-BH-CCK-8S competition, membranes of CHO-K1 cells stably transfected with CCK-1 receptor, 0.3 μM PD-134,308 present, read-out: pKi (converted)): 6.31 nM
Compound: COc1ccc(-n2nc(CC(C(=O)O)c3cccc4ccccc34)cc2-c2ccc3c(c2)OCO3)cc1 (racemic) [Example 27, 3-[5-Benzo[1,3]dioxol-5-yl-1-(4-methoxy-phenyl)-1H-pyrazol-3-yl]-2-naphthalen-1-yl-propionic acid]

Reference: patent US20050026903A1, “CCK-1 receptor modulators” (priority 2003, published 2005)
